The test system of test [1] is cells separated from the urine of a patient suffering from bladder tumor. As to the kind of experiment: Binding of FITC-peptide to cells collected from urine (fluorescence microscopy). The test is classed as cell-based, human. Particulars: 4° C., 1 hour; FIG. 7. On the procedure: FIG. 7 is a set of fluorescence microscopic photographs showing the binding specificity of the target peptide having FITC attached thereto to cells separated from the urine of a patient suffering from bladder tumor, wherein the green fluorescence represents the peptide according to the present invention, and the blue fluorescence represents the nucleus stained with DAPI;
Urine of a patient that was in the hospital for surgical operation on the bladder tumor was centrifuged with 1500 rpm at 4° C. for 10 minutes to collect cells. As a control, bladder cells, collected from the urine of a normal human in the same manner as described above, were used. Next, the collected cells were allowed to react with the FITC-peptide 1 described in Example <2-2> and the control peptide (SEQ ID NO: 10) at 4° C. for 1 hour. After staining the cells with DAPI, the cells were transferred onto a slide and observed with a fluorescence microscope. Meanwhile, the cells were stained with the PAP staining method (Papanicolau and Marshall, Science 101:519, 1945), currently used as a method for the diagnosis of bladder tumor, to observe the presence of tumor cells.

In test [2] the test system is human bladder tumor tissue. As to the kind of experiment: Binding of FITC-peptide to frozen tissue sections (fluorescence microscopy). The following applies: 10 μM peptide, 4° C., 1 hour, FIG. 4. On the procedure: FIG. 4 is a set of photographs showing the binding specificity to the frozen section of human bladder tumor cells of the peptide according to the present invention having FITC attached thereto, wherein the green fluorescence represents the peptide according to the present invention, and the blue fluorescence represents the nucleus stained with DAPI;
Next, 10 μM of the peptide, FITC-CSNRDARRC, was allowed to react with the tissues at 4° C. for 1 hour. As a control, a peptide (SEQ ID NO: 10; CDASRRNRC), which had the same number of amino acids as the peptide according to the present invention but included a randomly modified amino acid sequence between both terminal cystein residues, was used. After the reaction of each peptide, a mounting solution (molecular Probe) containing a nucleus staining reagent, DAPI (4′,6-diamidino-2-phenylindole), was treated on the surface of the slide according to the method known to one skilled in the art. Then, the slide was observed by using a fluorescence microscope.

Test [3] concerns BBN-induced bladder tumor. The test is described as follows: In vivo micro PET imaging after intravenous injection of radiolabeled peptides. Set-up: species or system rat. The following applies: 14 hours after intravenous injection; tumor-bearing F344 rats; 380 μCi peptide 1, 313 μCi control; FIG. 8. On the procedure: For radioiodination, each of CSNRDARRC peptide (SEQ ID NO: 1) and CDASRRNRC control peptide (SEQ ID NO: 10) was added with a tyrosine residue at the N-terminus during synthesis. […] The synthetic peptide was labeled with [131I]NaI by using Iodo-bead (Pierce Biochemical Co., Rockford, Ill.). The bead was washed with phosphate-buffered saline (PBS), pH 7.2 and dried on filter paper for 5 min. The washed bead was added to a solution of [131I]NaI (100 MBq) in PBS. After shaking at RT for 5 min, the peptide solution (14 mg in 20 mL distilled water) was added to the [131I]NaI solution containing Iodo-bead. [131I]NaI (T1/2=[…]) was purchased from Korea Institute of Radiology and Science (KIRAMS; Seoul, Korea). The reaction was allowed to proceed for 15 min at RT by gentle shaking and then stopped by the removal of the bead out of the reaction tube. The 131I-incorporation yield measured by radio-TLC was 47% (silica, 10% ammonium acetate:methanol=30:70). […] The radiochemical purity of final solution was measured to be over 81.2%. […]
In contrast, uptake of the control peptide (313 μCi) was minimal (FIG. 8 D-F). These findings indicate that the radioactivity shown in rat bladder is not a non-specific one from urinary excretion of the radiolabeled peptides but a specific one from the uptake of the peptide by bladder tumor tissues.

Test [4] has as its system bladder tumor cells separated from the human bladder tissue. As to the kind of experiment: Binding of phage clones to bladder tumor cells and normal bladder cells from patient tissue (phage titer). The test is classed as cell-based. Particulars: phage clones of Example 1. On the procedure:
FIG. 3 is a graph showing the binding specificity of six positive phage clones to the bladder tumor cells separated from the human bladder tissue and to the normal bladder cells;
Bladder tumor cells were separated from fresh bladder tumor tissue obtained from six patients with a bladder tumor by transurethral resection of bladder tumor, according to a known method. The cells were measured for the specific binding of the six individual phage clones (SEQ ID NO: 1 to SEQ ID NO: 6) described in Example 1 to the tumor cells and compared their binding to that of the normal cells. First, bladder tumor tissue and normal bladder tissue were pulverized finely to provide cell suspensions, and the six phages (5×10^9 pfu) were allowed react with the cells at 4° C. for 2 hours. A non-recombinant phage, T7 415-1b phage, was used as a control phage. Next, tumor cells and the normal epithelial cells were separated from the cell suspensions formed from the tumor tissue and the normal tissue by using magnetic beads coated with epithelial cell antibodies, in the same manner as described in Example <1-2>. Then, phages were detected from the cells and measured for the titer of phages, in the same manner as described in Example <1-2>.

The subject of another test is bladder tumor cells. As to the kind of experiment: In vivo targeting after tail vein injection (BBN-induced bladder tumor). Further details: species or system rat. The following applies: final 50 μM in blood. The text has this: FIG. 6 is a set of photographs showing the in vivo targeting capability of the peptide according to the present invention, after injecting the peptide having FITC attached thereto into the tail venous vessel of a mouse in which a bladder tumor is induced, wherein the green fluorescence represents the peptide according to the present invention, and the red fluorescence represents an epithelial cell stained with cytokeratin;
(§1) First, 4 week-aged F344 rats (n=10) (Hyochang Science) were fed with water containing 0.05% of N-butyl-N-4-hydroxybutylnitrosoamine (BBN) for 8 weeks to induce a bladder tumor.
(§2) The FITC-peptide 1 was injected into the mouse, in which a bladder tumor induced, and into the normal mouse via the tail venous to a final concentration of 50 μM in the blood, followed by circulation for 2 hours. Additionally, to determine whether the peptide according to the present invention specifically targets the bladder tumor in vivo, a malignant melanoma was induced in a mouse (Hyochang Science), and the peptide according to the present invention was injected into the mouse in the same manner as described above. Then, the bladder was removed from each mouse to prepare a frozen section, which, in turn, was stained by H&E staining or cytokeratin staining. Each section was observed by using a fluorescence microscope.

In test [5] the test system is malignant melanoma tissue. As to the kind of experiment: In vivo targeting after tail vein injection in mouse with induced malignant melanoma. The following applies: final 50 μM in blood, 2 hours. The protocol:
k: microscopic photograph of malignant melanoma of mouse injected with the peptide according to the present invention and stained with H & E; and
l: fluorescence microscopic photograph of cancer tissue of mouse injected with the peptide according to the present invention and stained with DAPI; and
as §2

For the next test, the system named is bladder tumor tissue. The test is described as follows: In vivo targeting after injection into the bladder via the urethra (BBN-induced bladder tumor). Further details: species or system rat. Particulars: 50 μM injected into bladder via urethra, 30 minutes, FIG. 5.
Description: FIG. 5 is a set of photographs showing the binding specificity to bladder tumor tissue of the peptide according to the present invention having FITC attached thereto, after injecting the peptide into the mouse bladder in which a bladder tumor is induced, wherein the green fluorescence represents the peptide according to the present invention, and the red fluorescence represents an epithelial cell stained with cytokeratin;
as §1
50 μM of FITC-CSNRDARRC peptide described in Example <2-2> was injected into the bladder of each of the mouse, in which a bladder tumor was induced, and a normal mouse via the urethra, followed by reaction for 30 minutes. Then, the bladder was removed from each mouse and a frozen section was provided. The frozen section was stained by H&E staining according to a method known to one skilled in the art. […] Then, 1:200 dilution of a secondary antibody, to which a red fluorescence material (Alexa red) was bonded, was allowed to react with the cells at room temperature for 1 hour, followed by treatment with a mounting solution containing DAPI. Next, the cells were observed by using a fluorescence microscope.

Positions of bridges follow the written chain, without caps; N, C: chain ends. No end group written: not given here. *: point of attachment. FITC = O=C1OC2(c3ccc(O)cc3Oc3cc(O)ccc32)c2ccc(NC(=S)*)cc21

Take “CDASRRNRC (YCDASRRNRC; disulfide 2-10; numbers in words are those of the source; also: 124I radiolabel) [control peptide, radioiodinated with added N-terminal tyrosine for PET, reference compound]”: the “fluorescence/binding in urine cells of the patient suffering from bladder tumor” value in test [1] is “could not be bonded”. Also, the “binding to bladder tumor tissue” value in test [2] is given as “substantially showed no binding”. In addition, the “uptake in bladder on micro PET images” value in test [3] is on record as “minimal”.

For the substance “CSNRDARRC (disulfide 1-9; not fully specified (N-terminus)) [peptide 1]”, in test [4], the “binding capability among the six phage clones” value is recorded as “highest binding capability”.

Turning to “FITC-CSNRDARRC ({FITC}-CSNRDARRC; disulfide 1-9) [FITC-peptide 1, peptide 1 with FITC (fluorescein isothiocyanate) linked to its amino terminal]”, the “detection of peptide in lung tissue of a normal mouse” value in the test with bladder tumor cells (2 hours) was “not detected”. In addition, the “detection of peptide in normal bladder cells” value in the test with bladder tumor cells (2 hours, normal animal) was “not detected”. For the same substance, in the test on bladder tumor cells (circulation 2 hours, FIG. 6), the “targeting of bladder tumor cells after injection into the blood” value is reported as “targets the bladder tumor cells”. For the same substance, in test [1], the “fluorescence in control cells (urine of a normal human)” value is recorded as “fluorescence was not detected” and the “fluorescence/binding in urine cells of the patient suffering from bladder tumor” value is “green fluorescence was observed”. In addition, the “detection of peptide in malignant melanoma tissue” value in test [5] was “not detected”. In test [2], the “binding to bladder tumor tissue” value is “bonded specifically”. Further, the “fluorescence in epithelial cells at the site where a bladder tumor was induced” value with bladder tumor tissue was “green fluorescence was observed”. Further, the “fluorescence in epithelial cells covering the normal bladder” value with bladder tumor tissue (normal animal) was “no fluorescence was observed”.

For the origin of these results see patent US7745410B2, “Bladder tumor-targeting peptide and use thereof” (Kyungpook National University Industry-Academica …, priority 2006, dated 2010).
